Reference: ChEMBL document CHEMBL1125524, “Adenosine A1 antagonists. 2. Structure-activity relationships on diuretic activities and protective effects against acute renal failure” (J Med Chem, 1992)

Key:
Rattus norvegicus [1] = assay: Serum creatinine concentration measured after intraperitoneal administration of 1 mg/kg of compound to rats(vehicle 5.07+/-0.33); type: functional
Rattus norvegicus [2] = assay: Oral diuretic activity was measured after oral administration of 25 mg/kg to rats(control volume is 0.94+/-0.04); type: functional, Urine
Rattus norvegicus [3] = assay: Percent inhibition of Urea nitrogen by the compound given as ratio of UN value in treated to vehicle treated ones after intraperitoneal administration of 1 mg/kg of compound to rats(vehicle 195.8+/-14.4); type: functional; conditions: Rattus norvegicus, ip
Rattus norvegicus [4] = assay: Ratio of urinary excretion value (urinary volume) in treated rats to that in control rats, at a peroral dose of 25 mg/Kg; type: functional, Urine
Adenosine receptor A1 = target: T1, Adenosine receptor A1 (Cavia porcellus, UniProt P47745)
T1 sequence (P47745 whole entry): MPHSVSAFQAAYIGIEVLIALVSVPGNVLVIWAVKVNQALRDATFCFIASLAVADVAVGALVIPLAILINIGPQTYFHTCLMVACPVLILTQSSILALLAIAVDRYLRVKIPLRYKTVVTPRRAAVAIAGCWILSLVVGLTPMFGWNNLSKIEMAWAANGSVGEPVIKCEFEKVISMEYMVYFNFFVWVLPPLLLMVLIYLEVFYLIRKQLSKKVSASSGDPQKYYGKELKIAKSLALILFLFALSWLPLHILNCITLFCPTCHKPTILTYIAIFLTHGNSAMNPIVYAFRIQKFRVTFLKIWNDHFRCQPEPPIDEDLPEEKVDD
Description: Binding affinity against adenosine A1 receptor in guinea pig forebrain membranes using N6-[3H]cyclohexyladenosine as radioligand

Rattus norvegicus [5] = assay: Effect on urinary excretion potassium and sodium after oral administration of 25 mg/kg to rats(potassium and sodium excretion in control rat is 0.130+/-0.009); type: functional, Urine
Rattus norvegicus [6] = organism: Rattus norvegicus; assay: animal or person; conditions: ip, read-out: Inhibition, dose 1 mg/kg, route intraperitoneal
Rattus norvegicus [7] = assay: Ratio of urinary excretion value (Na+ concentration) in treated rats to that in control rats, at a peroral dose of 25 mg/Kg; type: functional, Urine
Adenosine A2 receptor = Adenosine A2 receptor (Rattus norvegicus, UniProt P29276+P30543)
Rattus norvegicus [8] = assay: Urea nitrogen concentration measured after intraperitoneal administration of 1 mg/kg of compound to rats(vehicle 195.8+/-14.4); type: functional
Rattus norvegicus [9] = assay: Ratio of urinary excretion value (urinary volume) in treated rats to that in control rats, at a peroral dose of 6.25 mg/Kg; type: functional, Urine
Rattus norvegicus [10] = assay: Oral diuretic activity was measured after oral administration of 25 mg/kg to rats(control volume is 0.80+/-0.04); type: functional, Urine
Rattus norvegicus [11] = assay: Urea nitrogen concentration measured after intraperitoneal administration of 1 mg/kg of compound to rats(vehicle 178+/-11.3); type: functional
Rattus norvegicus [12] = assay: Effect on urinary excretion potassium and sodium after oral administration of 25 mg/kg to rats(potassium and sodium excretion in control rat is 0.134+/-0.004); type: functional, Urine
Rattus norvegicus [13] = assay: Effect on urinary excretion potassium and sodium after oral administration of 1.6 mg/kg to rats(potassium and sodium excretion in control rat is 0.261+/-0.008); type: functional, Urine
Rattus norvegicus [14] = assay: Ratio of sodium ion/potassium ion concentration in treated rats to that in control rats, at a peroral dose of 1.6 mg/Kg; type: functional
Rattus norvegicus [15] = assay: Serum creatinine concentration measured after intraperitoneal administration of 1 mg/kg of compound to rats(vehicle 3.86+/-0.27); type: functional
Rattus norvegicus [16] = assay: Percent inhibition of serum creatinine by the compound given as ratio of Cr value in treated to vehicle treated ones fter intraperitoneal administration of 10 mg/kg of compound to rats(vehicle 3.94+/-0.24); type: functional; conditions: ip
Rattus norvegicus [17] = assay: Oral diuretic activity was measured after oral administration of 1.6 mg/kg to rats(control volume is […]+/-[…]); type: functional, Urine
Rattus norvegicus [18] = assay: Ratio of urinary excretion value (urinary volume) in treated rats to that in control rats, at a peroral dose of 1.6 mg/Kg; type: functional, Urine
Rattus norvegicus [19] = assay: Urea nitrogen concentration measured after intraperitoneal administration of 10 mg/kg of compound to rats(vehicle 141.3+/-6.6); type: functional
Rattus norvegicus [20] = assay: Ratio of urinary excretion value (Na+ concentration) in treated rats to that in control rats, at a peroral dose of 6.25 mg/Kg; type: functional, Urine
Rattus norvegicus [21] = assay: Percent inhibition of serum creatinine by the compound given as ratio of Cr value in treated to vehicle treated ones after intraperitoneal administration of 1 mg/kg of compound to rats(vehicle 3.86+/-0.27); type: functional; conditions: ip
Rattus norvegicus [22] = assay: Serum creatinine concentration measured after intraperitoneal administration of 10 mg/kg of compound to rats(vehicle 3.94+/-0.24); type: functional
Rattus norvegicus [23] = assay: Percent inhibition of Urea nitrogen by the compound given as ratio of UN value in treated to vehicle treated ones after intraperitoneal administration of 1 mg/kg of compound to rats(vehicle 178+/-11.3); type: functional; conditions: ip
Rattus norvegicus [24] = assay: Percent inhibition of Urea nitrogen by the compound given as ratio of UN value in treated to vehicle treated ones fter intraperitoneal administration of 10 mg/kg of compound to rats(vehicle 141.3+/-6.6); type: functional; conditions: ip
Rattus norvegicus [25] = assay: Ratio of sodium ion/potassium ion concentration in treated rats to that in control rats, at a peroral dose of 25 mg/Kg; type: functional
Rattus norvegicus [26] = assay: Ratio of urinary excretion value (Na+ concentration) in treated rats to that in control rats, at a peroral dose of 1.6 mg/Kg; type: functional, Urine

CCCn1c(=O)c2nc(C3CC4C=CC3C4)[nH]c2n(CCC)c1=O (stereo in doubt; 18)
Cr (Rattus norvegicus [1]): 2.23 mg/dL
Urine volume (Rattus norvegicus [2]): 1.75 ml 6hr-1 100g-1
inhibition in vivo at 1 mg/kg (Rattus norvegicus [3]): 53%
T/C (Rattus norvegicus [4]): 1.87
Ki (Adenosine receptor A1): 3.4 nM
Na (Rattus norvegicus [5]): 0.271 m equiv 6hr-1 100g-1
inhibition in vivo at 1 mg/kg (Rattus norvegicus [6]): 56%
T/C (Rattus norvegicus [7]): 2.09
Ki (Adenosine A2 receptor): 210 nM
UN (Rattus norvegicus [8]): 92.7 mg/dL

Cn1c(=O)c2nc(-c3ccccc3)[nH]c2n(C)c1=O [8-PHENYL THEOPHYLLINE]
T/C (Rattus norvegicus [9]): 1.79
Urine volume (Rattus norvegicus [10]): 1.1 ml 6hr-1 100g-1
UN (Rattus norvegicus [11]): 148.3 mg/dL
Na (Rattus norvegicus [12]): 0.201 m equiv 6hr-1 100g-1
Na (Rattus norvegicus [13]): 0.175 m equiv 6hr-1 100g-1
Na+/K+ (Rattus norvegicus [14]): 0.87
Cr (Rattus norvegicus [15]): 3.14 mg/dL
inhibition in vivo at 10 mg/kg (Rattus norvegicus [16]): 56%
Urine volume (Rattus norvegicus [17]): 0.88 ml 6hr-1 100g-1
T/C (Rattus norvegicus [18]): 0.63
UN (Rattus norvegicus [19]): 62.4 mg/dL
T/C (Rattus norvegicus [20]): 1.54
T/C (Rattus norvegicus [4]): 1.38
inhibition in vivo at 1 mg/kg (Rattus norvegicus [21]): 19%
Ki (Adenosine receptor A1): 1600 nM
Cr (Rattus norvegicus [22]): 1.74 mg/dL
inhibition in vivo at 1 mg/kg (Rattus norvegicus [23]): 17%
T/C (Rattus norvegicus [7]): 1.39
inhibition in vivo at 10 mg/kg (Rattus norvegicus [24]): 56%
Ki (Adenosine A2 receptor): 2300 nM
Na+/K+ (Rattus norvegicus [25]): 1.39
T/C (Rattus norvegicus [26]): 0.87
